From PMC5469451, “Identification of compounds that suppress Toxoplasma gondii tachyzoites and bradyzoites” (PLoS ONE, 2017)
Like-named read-outs stand apart in the source and are kept apart here. Where a SMILES comes first, the peptide text is derived from it. The star is where a group is joined. Boc = CC(C)(C)OC(=O)*

Columns and labels:
[1] = system: PLK/DLUC_1C9 tachyzoites in Vero cells; assay: Primary screening: T. gondii growth assay, Renilla luciferase; type: cell-based, Toxoplasma gondii; conditions: 48 h; for inhibition at 10 µM: Toxoplasma gondii, read-out: Parasite Inhibition (%)
Method: In the primary screening, purified PLK/DLULC_1C9 tachyzoites were incubated with Vero cells at a multiplicity of infection (MOI) of 0.5. After a 2-h incubation, the infected host cells were trypsinized to obtain a cell suspension and then these suspended infected cells were inoculated into 96-well optical bottom plates containing the compound library. Each well was inoculated with 2500 cells in 25 μL of culture medium. […] Following cell inoculation, each well therefore contained 0.5% DMSO and 10 μM compound. After 48 h of culture, Renilla luciferase activity was measured by using Renilla-Glo (Promega, WI, USA) following the manufacturer’s instructions. […] The Z’-value for each plate was calculated from the Renilla luciferase activity in the negative and positive control wells.

[2] = system: Vero cells; assay: Host cell cytotoxicity assay (Cell-Titer Glo), Vero cells; type: cell-based
Method: (§1) Host cells were treated with compounds at the same concentration used for screening (i.e., 0.5% DMSO and 10 μM compound). Vero cells and HFF cells were both used as host cells because both cell types were used for the parasite screening. After incubation for 48 h in DMEM supplemented with 5% FBS, L-glutamine, penicillin, and streptomycin, cell viabilities were measured by using a Cell-Titer Glo kit (Promega) following the manufacturer’s instructions. Control wells were treated with DMSO alone in culture medium to calculate the 100% viability for each cell type.

[3] = system: RH-2F tachyzoites (type I strain) in HFF cells; assay: Confirmatory screening: RH-2F β-galactosidase growth assay in HFF cells; type: cell-based, Toxoplasma gondii; conditions: 48 h; for inhibition at 2.5 µM / inhibition at 25 µM: Toxoplasma gondii, read-out: Parasite inhibition (%)
Method: In the confirmatory screening, we utilize an RH strain β-galactosidase reporter parasite termed RH-2F (a type I strain). Briefly, RH-2F parasites were purified from freshly lysed infected host cells and used to infect confluent HFF cells cultured in 96-well plates. Five hundred parasites were added to each well, along with each test compound and 50 μL of culture medium. Plates were then incubated for 10 min at room temperature followed by an incubation at 37°C for 48 h in a CO2 incubator.
To measure the effects of tanshinone IIA and hydroxyzine on intracellular parasite growth, parasites were allowed to invade for 2 h, uninvaded parasites were washed away, and medium with compounds was added. After 48 h, the plates were frozen at -80°C. Plates were then thawed just prior to the measurement of beta-galactosidase activity. Beta-Glo (Promega) was used to measure β-galactosidase activity following the manufacturer’s instructions.

[4] = system: HFF cells; assay: Host cell cytotoxicity assay (Cell-Titer Glo), HFF cells; type: cell-based, human
Method: (§2) Vero cells and HFF cells were both used as host cells because both cell types were used for the parasite screening. After incubation for 48 h in DMEM supplemented with 5% FBS, L-glutamine, penicillin, and streptomycin, cell viabilities were measured by using a Cell-Titer Glo kit (Promega) following the manufacturer’s instructions. Control wells were treated with DMSO alone in culture medium to calculate the 100% viability for each cell type.

[5] = Host cell cytotoxicity assay (Cell-Titer Glo), Vero cells; type: cell-based; conditions: African green monkey
Method: as §1

[6] = Host cell cytotoxicity assay (Cell-Titer Glo), HFF cells; type: cell-based, human; conditions: human
Method: as §2

[7] = 10 μM, PLK/DLUC_1C9 in Vero cells, DMSO = 0%, 10 μM pyrimethamine = 100%
[8] = 2.5 μM, RH-2F in HFF, compared with 10 μM pyrimethamine
[9] = 25 μM, RH-2F in HFF, compared with 10 μM pyrimethamine
[10] = 10 μM, 48 h, Vero cells, DMSO = 100%
[11] = 25 μM, 48 h, HFF cells, compared with DMSO
[12] = 10 μM, 48 h, Vero cells, DMSO = 100%, read-out: Host Viability (%)
[13] = HFF, 2.5 μM, RH-2F in HFF, compared with 10 μM pyrimethamine
[14] = HFF, 25 μM, RH-2F in HFF, compared with 10 μM pyrimethamine

CC(C)(C)c1ccc(C(O)CCCN2CCC(C(O)(c3ccccc3)c3ccccc3)CC2)cc1 (racemic) [(±)-Terfenadine]
Parasite inhibition (%) [1, 7]: 104% | Host Viability (%) ([2]; 10 µM): 85% | Parasite inhibition (%) [3, 8]: -12% | Parasite inhibition (%) [3, 9]: 96% | Host cell viability (%) ([4]; 2.5 µM): 96% | Host cell viability (%) ([4]; 25 µM): 0.1%

COc1ccc(C(=O)/C(Cc2cc(OC)c(OC)c(OC)c2)=C(\C(=O)O)c2ccc3c(c2)OCO3)cc1 [(2Z)-2-(1,3-Benzodioxol-5-yl)-4-(4-methoxyphenyl)-4-oxo-3-(3,4,5-trimethoxybenzyl)-2-butenoic acid]
inhibition at 10 µM [1, 7]: 93% | viability at 48 h, 10 µM [5]: 85%

CCCCC/C=C\C/C=C\C/C=C\C/C=C\CCCC(=O)Nc1ccc(O)cc1 [AM404]
Parasite inhibition (%) [1, 7]: 103% | Host Viability (%) [2, 10]: 100% | Parasite inhibition (%) [3, 8]: -11% | Parasite inhibition (%) [3, 9]: 59% | Host cell viability (%) ([4]; 2.5 μM, 48 h, HFF cells): 93% | Host cell viability (%) [4, 11]: 86%

CC(C)C[C@H]1C(=O)N2CCC[C@H]2[C@]2(O)O[C@](NC(=O)[C@@H]3C=C4c5cccc6[nH]c(Br)c(c56)C[C@H]4N(C)C3)(C(C)C)C(=O)N12 [Bromocriptine]
inhibition at 10 µM [1, 7]: 105% | viability at 48 h, 10 µM [5, 12]: 85% | inhibition at 2.5 µM [3, 8]: -8% | inhibition at 25 µM [3, 9]: 110% | viability at 48 h, 2.5 µM ([6]; HFF cells, 2.5 μM, 48 h, HFF cells, read-out: Host cell viability (%)): 98% | viability at 48 h, 25 µM ([6]; HFF cells, 25 μM, 48 h, HFF cells, compared with DMSO, read-out: Host cell viability (%)): 93%

O=C(/C=C/c1ccc(O)c(O)c1)c1ccc(O)cc1O [Butein]
inhibition at 10 µM [1, 7]: 96% | viability at 48 h, 10 µM [5]: 93% | inhibition at 2.5 µM [3, 13]: -11% | inhibition at 25 µM [3, 14]: 110% | viability at 48 h, 2.5 µM ([6]; Host cell viability (%)): 102% | viability at 48 h, 25 µM ([6]; Host cell viability (%)): 91%

Clc1ccccc1C(c1ccccc1)(c1ccccc1)n1ccnc1 [Clotrimazol]
inhibition at 10 µM [1, 7]: 99% | viability at 48 h, 10 µM [5]: 94%

O=c1[nH]c2ccccc2n1CCCN1CCC(n2c(=O)[nH]c3cc(Cl)ccc32)CC1 [Domperidone]
inhibition at 10 µM ([1]; Vero): 93% | viability at 48 h, 10 µM [5]: 94% | inhibition at 2.5 µM [3, 13]: -7.2% | inhibition at 25 µM ([3]; HFF): 77% | viability at 48 h, 2.5 µM ([6]; Host cell viability (%)): 94% | viability at 48 h, 25 µM ([6]; Host cell viability (%)): 83%

Nc1ccccc1NC(=O)c1ccc(CNC(=O)OCc2cccnc2)cc1 [Entinostat]
inhibition at 10 µM [1, 7]: 91% | viability at 48 h, 10 µM [5]: 83% | inhibition at 2.5 µM [3, 13]: -20% | inhibition at 25 µM [3, 14]: 60% | viability at 48 h, 2.5 µM ([6]; Host cell viability (%)): 92% | viability at 48 h, 25 µM ([6]; Host cell viability (%)): 91%

OCCN1CCN(CCCN2c3ccccc3Sc3ccc(C(F)(F)F)cc32)CC1 [FLUPHENAZINE]
viability at 48 h, 10 µM [5]: 83% | viability at 48 h, 2.5 µM ([6]; Host cell viability (%)): 104% | viability at 48 h, 25 µM ([6]; Host cell viability (%)): 84%

CCN(CC)CCNc1ccc(CO)c2sc3ccccc3c(=O)c12 [Hycanthone]
inhibition at 10 µM [1, 7]: 97% | viability at 48 h, 10 µM [5]: 82%

Clc1ccc(C(Cn2ccnc2)OCc2c(Cl)cccc2Cl)c(Cl)c1 (centres unmarked) [Isoconazole]
inhibition at 10 µM [1, 7]: 104% | viability at 10 µM [5, 12]: 101%

Cc1ccc(C(=O)c2cc(/C=C/C(=O)NO)n(C)c2)cc1 [MC-1293]
Parasite inhibition (%) [1, 7]: 103% | Host Viability (%) [2, 10]: 85% | Parasite inhibition (%) [3, 8]: 12% | Parasite inhibition (%) [3, 9]: 95% | Host cell viability (%) ([4]; 2.5 μM, 48 h, HFF cells): 98% | Host cell viability (%) [4, 11]: 95%

OC(c1cc(C(F)(F)F)nc2c(C(F)(F)F)cccc12)C1CCCCN1 (centres unmarked) [Mefloquine]
inhibition at 10 µM [1, 7]: 101% | viability at 48 h, 10 µM [5]: 87% | inhibition at 2.5 µM [3, 8]: 6.5% | inhibition at 25 µM [3, 9]: 113% | viability at 48 h, 2.5 µM ([6]; Host cell viability (%)): 94% | viability at 48 h, 25 µM ([6]; Host cell viability (%)): 48%

COc1ccc(S(=O)(=O)N(CC(=O)NO)CC(C)C)cc1 [N-Hydroxy-N2-isobutyl-N2-[(4-methoxyphenyl)sulfonyl]glycinamide]
inhibition at 10 µM ([1]; Vero): 101% | viability at 10 µM [5, 12]: 98%

CC(C)[C@H](NC(=O)CNC(=O)OC(C)(C)C)C(=O)N[C@H](C=O)C(C)C [N-{[(2-Methyl-2-propanyl)oxy]carbonyl}glycyl-N-[(2S)-3-methyl-1-oxo-2-butanyl]-L-valinamide] (Boc-Gly-Val-Val-aldehyde)
inhibition at 10 µM [1, 7]: 105% | viability at 48 h, 10 µM [5]: 106%

COC(=O)C1=C(C)NC(C)=C(C(=O)OCCCN2CCC(c3ccccc3)(c3ccccc3)CC2)[C@H]1c1cccc([N+](=O)[O-])c1 [Niguldipine]
inhibition at 10 µM ([1]; Vero): 103% | viability at 10 µM [5]: 77% | inhibition at 2.5 µM ([3]; HFF): -19% | inhibition at 25 µM ([3]; HFF): 96% | viability at 2.5 µM [6]: 99% | viability at 25 µM [6]: 84%

COc1ccc2[nH]c([S+]([O-])Cc3ncc(C)c(OC)c3C)nc2c1 (centres unmarked) [Omeprazole]
inhibition at 10 µM ([1]; Vero): 92% | viability at 48 h, 10 µM [5]: 97% | inhibition at 2.5 µM ([3]; HFF): 4.3% | inhibition at 25 µM ([3]; HFF): 44% | viability at 48 h, 2.5 µM ([6]; Host cell viability (%)): 100% | viability at 48 h, 25 µM ([6]; Host cell viability (%)): 100%

O=C1[C@H]2CCCC[C@H]2C(=O)N1CCCCN1CCN(c2nsc3ccccc23)CC1 [Perospirone]
inhibition at 10 µM [1, 7]: 100% | viability at 48 h, 10 µM [5]: 96% | inhibition at 2.5 µM [3, 13]: 4.5% | inhibition at 25 µM [3, 14]: 59% | viability at 48 h, 2.5 µM ([6]; Host cell viability (%)): 102% | viability at 48 h, 25 µM ([6]; Host cell viability (%)): 101%

OCCN1CCN(CCCN2c3ccccc3Sc3ccc(Cl)cc32)CC1 [Perphenazine]
inhibition at 10 µM [1, 7]: 104% | viability at 48 h, 10 µM [5]: 84% | inhibition at 2.5 µM [3, 13]: -6.8% | inhibition at 25 µM [3, 9]: 112% | viability at 48 h, 2.5 µM ([6]; Host cell viability (%)): 95% | viability at 48 h, 25 µM ([6]; Host cell viability (%)): 65%

CC[N+](C)(CC)CCC[n+]1c(-c2ccccc2)c2cc(N)ccc2c2ccc(N)cc21.[I-].[I-] [Propidium Iodide]
Parasite inhibition (%) [1, 7]: 91% | Host Viability (%) ([2]; 10 µM): 91%

COc1ccc(Cl)cc1NC(=O)Nc1cc(C)nc2ccccc12 [TCMDC-125497]
Parasite inhibition (%) [1, 7]: 106% | Host Viability (%) ([2]; 10 µM): 82% | Parasite inhibition (%) [3, 8]: 20% | Parasite inhibition (%) [3, 9]: 113% | Host cell viability (%) ([4]; 2.5 µM): 99% | Host cell viability (%) ([4]; 25 µM): 78%

PENITREM A
Parasite inhibition (%) [1, 7]: 105% | Parasite inhibition (%) [3, 8]: 6.0% | Parasite inhibition (%) [3, 9]: 110%
